Test results reported in PubChem BioAssay (NCI).
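Where inhibition never reached the appropriate level, the endpoint shown equals the highest concentration tested. Otherwise, values were interpolated linearly from a five-concentration, 48-hour dose response in 96-well plates. At the TGI there is no net growth.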

Key:
Assay in all cases: inhibition of tumour cell growth, NCI panel, 48 h
[1] = test system: DLD-1 colon
[2] = test system: DMS 273 small cell lung
[3] = test system: HOP-18 NSCLC
[4] = test system: KM20L2 colon
[5] = test system: LXFL 529 NSCLC
[6] = test system: M19-MEL melanoma
[7] = test system: RXF 393 renal
[8] = test system: RXF-631 renal
[9] = test system: SK-MEL-5 melanoma
[10] = test system: SNB-78 CNS
[11] = test system: XF 498 CNS
[12] = test system: DMS 114 small cell lung

Question: CC(=O)c1ccccc1NC(=O)C(=O)C(C(=O)c1ccccc1-c1ccccc1)C1OC(=O)c2ccccc21 (centres undefined) was tested. Which TGI [1] did it give?
Answer: Its TGI is 48 µM.

Question: And the TGI [2]?
Answer: Its TGI is greater than 100 µM.

Question: And the TGI [3]?
Answer: The TGI was 36.1 µM.

Question: What about the TGI [4] of the same compound?
Answer: Its TGI is 53 µM.

Question: What about the TGI [5] of the same compound?
Answer: Its TGI is 31.3 µM.

Question: What about the TGI [6] of the same compound?
Answer: Its TGI is 48.2 µM.

Question: And the TGI [7]?
Answer: The TGI was 25 µM.

Question: What about the TGI [8] of the same compound?
Answer: The TGI was greater than 100 µM.

Question: What about the TGI [9] of the same compound?
Answer: Its TGI is 33.8 µM.

Question: What about the TGI [10] of the same compound?
Answer: The TGI was greater than 100 µM.

Question: What about the TGI [11] of the same compound?
Answer: Its TGI is 24.3 µM.

Question: Which TGI [1] does the source give for C[C@]12CC[C@H](O)CC1=CC[C@@H]1C2CC[C@]2(C)C(=O)NC(=O)CC12 (some centres undefined) here?
Answer: The TGI was greater than 100 µM.

Question: What about the TGI [12] of the same compound?
Answer: The TGI was greater than 100 µM.

Question: What about the TGI [2] of the same compound?
Answer: The TGI was greater than 100 µM.

Question: And the TGI [3]?
Answer: The TGI was greater than 100 µM.

Question: And the TGI [4]?
Answer: The TGI was greater than 100 µM.

Question: And the TGI [5]?
Answer: Its TGI is greater than 100 µM.

Question: What about the TGI [6] of the same compound?
Answer: The TGI was greater than 100 µM.

Question: What about the TGI [7] of the same compound?
Answer: Its TGI is greater than 100 µM.

Question: And the TGI [8]?
Answer: Its TGI is greater than 100 µM.

Question: And the TGI [9]?
Answer: Its TGI is greater than 100 µM.

Question: What about the TGI [10] of the same compound?
Answer: Its TGI is greater than 100 µM.

Question: And the TGI [11]?
Answer: The TGI was greater than 100 µM.

Question: For CC(C)OC/N=C(/N)NC#N, which TGI [1] is on record?
Answer: The TGI was greater than 100 µM.

Question: What about the TGI [12] of the same compound?
Answer: Its TGI is greater than 100 µM.

Question: And the TGI [2]?
Answer: Its TGI is greater than 100 µM.

Question: What about the TGI [3] of the same compound?
Answer: Its TGI is greater than 100 µM.

Question: And the TGI [4]?
Answer: Its TGI is greater than 100 µM.

Question: And the TGI [5]?
Answer: Its TGI is greater than 100 µM.

Question: What about the TGI [6] of the same compound?
Answer: Its TGI is greater than 100 µM.

Question: What about the TGI [7] of the same compound?
Answer: Its TGI is greater than 100 µM.

Question: What about the TGI [8] of the same compound?
Answer: Its TGI is greater than 100 µM.

Question: What about the TGI [9] of the same compound?
Answer: Its TGI is greater than 100 µM.

Question: What about the TGI [10] of the same compound?
Answer: Its TGI is greater than 100 µM.

Question: What about the TGI [11] of the same compound?
Answer: The TGI was greater than 100 µM.

Question: How did the TGI [1] turn out when CC1=NN2C(c3ccc([N+](=O)[O-])cc3)=CSC2=NC(C)(C)C1 was run?
Answer: Its TGI is greater than 100 µM.

Question: And the TGI [12]?
Answer: Its TGI is greater than 100 µM.

Question: What about the TGI [2] of the same compound?
Answer: The TGI was greater than 100 µM.

Question: What about the TGI [3] of the same compound?
Answer: The TGI was greater than 100 µM.

Question: What about the TGI [4] of the same compound?
Answer: Its TGI is greater than 100 µM.

Question: And the TGI [5]?
Answer: Its TGI is greater than 100 µM.

Question: What about the TGI [6] of the same compound?
Answer: The TGI was greater than 100 µM.

Question: What about the TGI [7] of the same compound?
Answer: The TGI was greater than 100 µM.

Question: And the TGI [8]?
Answer: Its TGI is greater than 100 µM.

Question: What about the TGI [9] of the same compound?
Answer: The TGI was greater than 100 µM.

Question: And the TGI [10]?
Answer: The TGI was greater than 100 µM.

Question: What about the TGI [11] of the same compound?
Answer: Its TGI is greater than 100 µM.

Question: What does the source list for COc1c(I)c(OC)c2c(c1I)O[C@@H]1OCC[C@H]21?
Answer: TGI [1]: > 100 µM; TGI [12]: 70.5 µM; TGI [2]: 56.5 µM; TGI [3]: 81 µM; TGI [4]: > 100 µM; TGI [5]: 63.7 µM; TGI [6]: 57.7 µM; TGI [7]: 72.4 µM; TGI [8]: > 100 µM; TGI [9]: 27.2 µM; TGI [10]: > 100 µM; TGI [11]: 66.4 µM

Question: C(=C\C(Sc1ccccc1)c1ccccc1)/NNC1=NC(c2ccccc2)C(c2ccccc2)=NN1 (centres undefined) was tested. Which TGI [1] did it give?
Answer: Its TGI is 56 µM.

Question: And the TGI [12]?
Answer: Its TGI is greater than 100 µM.

Question: What about the TGI [2] of the same compound?
Answer: The TGI was greater than 100 µM.

Question: What about the TGI [3] of the same compound?
Answer: The TGI was greater than 100 µM.

Question: And the TGI [4]?
Answer: The TGI was greater than 100 µM.

Question: What about the TGI [6] of the same compound?
Answer: The TGI was greater than 100 µM.

Question: What about the TGI [8] of the same compound?
Answer: The TGI was greater than 100 µM.

Question: And the TGI [9]?
Answer: Its TGI is greater than 100 µM.

Question: What about the TGI [10] of the same compound?
Answer: The TGI was greater than 100 µM.

Question: What about the TGI [11] of the same compound?
Answer: Its TGI is greater than 100 µM.

Question: With C=CCCCN1CCCC(C)C1=S (centres undefined) as the compound, how does the TGI [1] read?
Answer: The TGI was greater than 100 µM.

Question: What about the TGI [12] of the same compound?
Answer: The TGI was greater than 100 µM.

Question: And the TGI [2]?
Answer: Its TGI is greater than 100 µM.

Question: What about the TGI [3] of the same compound?
Answer: Its TGI is greater than 100 µM.

Question: What about the TGI [4] of the same compound?
Answer: Its TGI is greater than 100 µM.

Question: What about the TGI [6] of the same compound?
Answer: Its TGI is greater than 100 µM.

Question: What about the TGI [7] of the same compound?
Answer: Its TGI is greater than 100 µM.

Question: And the TGI [8]?
Answer: The TGI was greater than 100 µM.

Question: And the TGI [9]?
Answer: Its TGI is greater than 100 µM.

Question: What about the TGI [11] of the same compound?
Answer: The TGI was greater than 100 µM.
